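96-well plates; 48 h exposure; 5 concentrations. Endpoints by linear interpolation between flanking doses. Not reached: highest tested concentration assigned. TGI: concentration producing complete growth inhibition.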
Columns and labels:
Test in all cases: NCI tumour cell line growth inhibition, 48 h
SN12C renal = tested on: SN12C renal
COLO 205 colon = tested on: COLO 205 colon
SK-OV-3 ovarian = tested on: SK-OV-3 ovarian
A549 NSCLC = tested on: A549 NSCLC
NCI-H522 lung = tested on: NCI-H522 lung
IGROV1 ovarian = tested on: IGROV1 ovarian
U251 CNS = tested on: U251 CNS
K-562 leukemia = tested on: K-562 leukemia
SNB-19 CNS = tested on: SNB-19 CNS
OVCAR-4 ovarian = tested on: OVCAR-4 ovarian
SF-539 CNS = tested on: SF-539 CNS
OVCAR-3 ovarian = tested on: OVCAR-3 ovarian
OVCAR-8 ovarian = tested on: OVCAR-8 ovarian
HOP-62 NSCLC = tested on: HOP-62 NSCLC
SNB-78 CNS = tested on: SNB-78 CNS
XF 498 CNS = tested on: XF 498 CNS
CAKI-1 renal = tested on: CAKI-1 renal
LXFL 529 NSCLC = tested on: LXFL 529 NSCLC
NCI-H226 lung = tested on: NCI-H226 lung
SF-268 CNS = tested on: SF-268 CNS
KM12 colon = tested on: KM12 colon
UO-31 renal = tested on: UO-31 renal
RPMI-8226 leukemia = tested on: RPMI-8226 leukemia
DMS 114 small cell lung = tested on: DMS 114 small cell lung
SW-620 colon = tested on: SW-620 colon
RXF-631 renal = tested on: RXF-631 renal
UACC-257 melanoma = tested on: UACC-257 melanoma
A498 renal = tested on: A498 renal
ACHN renal = tested on: ACHN renal
SK-MEL-28 melanoma = tested on: SK-MEL-28 melanoma
M19-MEL melanoma = tested on: M19-MEL melanoma
SK-MEL-2 melanoma = tested on: SK-MEL-2 melanoma
HOP-18 NSCLC = tested on: HOP-18 NSCLC
HT29 colon = tested on: HT29 colon
OVCAR-5 ovarian = tested on: OVCAR-5 ovarian
HCT-116 colon = tested on: HCT-116 colon
MALME-3M melanoma = tested on: MALME-3M melanoma
NCI-H23 lung = tested on: NCI-H23 lung
EKVX NSCLC = tested on: EKVX NSCLC
786-0 renal = tested on: 786-0 renal
HCC-2998 colon = tested on: HCC-2998 colon
DLD-1 colon = tested on: DLD-1 colon
HCT-15 colon = tested on: HCT-15 colon
HL-60(TB) leukemia = tested on: HL-60(TB) leukemia
UACC-62 melanoma = tested on: UACC-62 melanoma
M14 melanoma = tested on: M14 melanoma
SF-295 CNS = tested on: SF-295 CNS
CCRF-CEM leukemia = tested on: CCRF-CEM leukemia
LOX IMVI melanoma = tested on: LOX IMVI melanoma
MOLT-4 leukemia = tested on: MOLT-4 leukemia
HOP-92 NSCLC = tested on: HOP-92 NSCLC
TK-10 renal = tested on: TK-10 renal
DMS 273 small cell lung = tested on: DMS 273 small cell lung
NCI-H460 lung = tested on: NCI-H460 lung
KM20L2 colon = tested on: KM20L2 colon
SR leukemia = tested on: SR leukemia
SNB-75 CNS = tested on: SNB-75 CNS
SK-MEL-5 melanoma = tested on: SK-MEL-5 melanoma
RXF 393 renal = tested on: RXF 393 renal
DU-145 prostate = tested on: DU-145 prostate

Measured: TGI

COC(=N)c1csc(C2OC(CO)C(O)C2O)n1 (stereo not given)
not listed: SR leukemia | SNB-75 CNS | SK-MEL-5 melanoma | RXF 393 renal | DU-145 prostate
> 100 µM: all other assays above

C=C(CN(C)C)C(=O)c1ccc(C(=O)C(=C)CN(C)C)cc1
not listed: HOP-62 NSCLC | SNB-78 CNS | DMS 114 small cell lung | RXF-631 renal | DMS 273 small cell lung
> 100 µM: all other assays above

Source: PubChem BioAssay (NCI)
